US20020131997A1, “Method for treating hematologic disorders with water insoluble 20 (S)-camptothecin” (priority 2000, published 2002)

Tests used:
Ph-positive CML = assay: Clinical treatment of patients with Ph-positive CML with oral 9NC gelules; type: in vivo, human; details: of 8 patients
Excerpt: (§1) Twenty five patients with hematologic disorders were admitted for the treatment with 9NC. Among them, 9 patients had Philadelphia chromosome (Ph)-negative bcr/abl-negative CML; 8 patients had Philadelphia chromosome (Ph)-positive CML (6 in chronic phase and 2 in accelerated phase); 7 patients had CMML; and one had MDS (RAEB, refractory anemia with excess blasts). Median age of patients was 65 years, ranging from age 29 to age 77. Median white blood cell (WBC) counts was 25.2×10^9/L (range: 4.5-76×10^9/L); and median platelet count was 223×10^9/L (range: 23-1042×10^9/L). Among the patients for the treatment, 14 patients had splenomegaly, with median of 10.5 cms below costal margin (range: 1-13 cms). The 8 patients with Ph-positive CML were previously treated with interferon (IFN). Except for 5 patients, 12 other patients were also previously treated with IFN. Prior to the treatment of the present invention, the patients were off chemotherapy using other anticancer drugs for 2 weeks and recovered from toxicity of that chemotherapy.
(§2) The dosing schedule was designed as the following. The drug product, 9NC gelules, are orally administered into patients for 5 consecutive days every week. Four weeks of treatment with 9NC oral dosage defines one course of treatment. Courses are repeated every 4-6 weeks, depending on patient response and recovery of WBC and platelet counts. The total daily 9NC dose is given in 2 equal divided doses (e.g. 8 a.m. and 8 p.m.).
The dose of treatment with 9NC was designed to be modified at 5 dose levels according to myelosuppression and extramedullary toxicity. The starting dose schedule at level 0 is 2.0 mg/m^2 9NC orally daily, 5 days every week. Dose level +1 is 2.5 mg/m^2 9NC orally daily, 5 days every week. Dose level +2 is 3.0 mg/m^2 9NC orally daily, 5 days every week. Dose level −1 is 1.5 mg/m^2 9NC orally daily, 5 days every week. Dose level −2 is 1.5 mg/m^2 9NC orally daily, 4 days every week. […]

[1] = tested on: Ph-negative bcr/abl-negative CML; assay: Clinical treatment of patients with Ph-negative bcr/abl-negative CML with oral 9NC gelules; type: in vivo, human
Excerpt: as §1, §2
(§3) The dose of treatment with 9NC was designed to be modified at 5 dose levels according to myelosuppression and extramedullary toxicity. The starting dose schedule at level 0 is 2.0 mg/m^2 9NC orally daily, 5 days every week. Dose level +1 is 2.5 mg/m^2 9NC orally daily, 5 days every week. Dose level +2 is 3.0 mg/m^2 9NC orally daily, 5 days every week. Dose level −1 is 1.5 mg/m^2 9NC orally daily, 5 days every week. Dose level −2 is 1.5 mg/m^2 9NC orally daily, 4 days every week.
(§4) During the course of treatment, if there is no response to 9NC and the patient's hematologic toxicity is less than grade II, the dose level is increase by 1 level. If there is no response to 9NC and the patient's hematologic toxicity is at grade II, the dose level stays at the same level. If there is response to 9NC and the patient's hematologic toxicity is at grade III or IV, the dose level is decreased by 1 level. If there is no response to 9NC and the patient's hematologic toxicity is at grade III or IV, the patient is off the treatment with 9NC.
If low hematologic counts is due to myelosuppression, not disease, subsequent courses can be delayed until WBC >2.0×10^9/L and platelets >80×10^9/L. If low counts are attributed to persistent disease, subsequent courses are started regardless of the counts.
The criteria for response to patients with CML are as follows.
Complete hematologic remission (CHR): Normalization for at least 4 weeks of the bone marrow (less than 5% blasts) and peripheral blood with WBC <10×10^9/L and no peripheral blasts, promyelocytes or myelocytes. This is in addition to disappearance of all signs and symptoms of the disease.
Partial hematologic remission (PHR): CHR except for persistence of immature cells (myelocytes, metamyelocytes), or splenomegaly <50% of pretreatment, or thrombocytosis >450×10^9/L but <50% of pretreatment.
Gelules of 9NC were orally administrated into the 9 patients with Ph-negative bcr/abl-negative CML. The starting dose was 2 mg/m^2 daily for 5 days every week. Doses were adjusted according to myelosuppression and extramedullary toxicity as described above. […] Thus, the objective response (OR) was 6/9.

dogs = assay: Toxicology studies in dogs; type: in vivo
CMML = assay: Clinical treatment of patients with CMML with oral 9NC gelules; type: in vivo, human
Excerpt: as §1, §2, §3, §4
If low hematologic counts is due to myelosuppression, not disease, subsequent courses can be delayed until WBC >2.0×10^9/L and platelets >80×10^9/L. If low counts are attributed to persistent disease, subsequent courses are started regardless of the counts. […]

mice = assay: Toxicology studies in mice; type: in vivo
MDS of the RAEB type = assay: Clinical treatment of patient with MDS (RAEB type) with oral 9NC gelules; type: in vivo, human; details: one patient, starting dose 2 mg/m^2 daily for 5 days every week
Excerpt: as §1
as §2, with “The total daily 9NC dose is given in 2 equal divided doses (e.g. 8 a.m. and 8 p.m.).” left out

[2] = Stability of 9NC at room temperature, activity determined by HPLC; type: physicochemical; details: left at room temperature (25° C.) for 2 months
Protocol: 9-nitro-20(S)-camptothecin (9NC) was encapsulated in oral dosage of gelules containing 1 mg 9NC by a registered pharmacist. When 9NC is left at room temperature (25° C.) for 2 months, the loss of activity is minimal and has been estimated to be less than 5%+4.6%. Determination of activity has been done by HPLC. The gelules are preferably stored in freezers.

[3] = of 9 patients, oral, starting dose 2 mg/m^2 daily for 5 days every week

SMILES: CC[C@@]1(O)C(=O)OCc2c1cc1n(c2=O)Cc2cc3c([N+](=O)[O-])cccc3nc2-1 [9NC, 9-nitro-20(S)-camptothecin]
- patients who did not show response to the treatment (Ph-positive CML): 6 patients
- patients with complete response hematologically and cytogenetically (Ph-positive CML; oral, starting dose 2 mg/m^2 daily for 5 days every week): 1 patient
- patients with minor spleen response (Ph-positive CML; patient in accelerated phase): 1 patient
- spleen response ([1]; in all 8 patients with splenomegaly): at least minor spleen response
- patients resistant to the treatment [1, 3]: 2 patients
- patients stable [1, 3]: 1 patient
- patients with complete remission [1, 3]: 2 patients
- patients with partial remission [1, 3]: 4 patients
- objective response (OR) ([1]; responders/patients, oral, starting dose 2 mg/m^2 daily for 5 days every week): 6/9
- primary toxicity (dogs): intestinal
- tolerability (dogs; 1.0 mg/kg/day, administered for over 2 months): well tolerated
- patients resistant to the treatment (CMML; of 7 patients): 1 patient
- patients with hematologic improvement in WBC or splenomegaly (CMML; of 7 patients): 4 patients
- patients with partial remission (CMML; of 7 patients, oral, starting dose 2 mg/m^2 daily for 5 days every week): 2 patients
- objective response (OR) (CMML; responders/patients): 6/7
- primary toxicity (mice): intestinal
- response by MDS criteria (MDS of the RAEB type): complete remission
- loss of activity [2]: less than 5%+4.6%
